For this assay, the target named is T1, human SSAO (Homo sapiens, UniProt Q16853).
T1 construct: made in house
T1 sequence (Q16853 29-763 limits assumed): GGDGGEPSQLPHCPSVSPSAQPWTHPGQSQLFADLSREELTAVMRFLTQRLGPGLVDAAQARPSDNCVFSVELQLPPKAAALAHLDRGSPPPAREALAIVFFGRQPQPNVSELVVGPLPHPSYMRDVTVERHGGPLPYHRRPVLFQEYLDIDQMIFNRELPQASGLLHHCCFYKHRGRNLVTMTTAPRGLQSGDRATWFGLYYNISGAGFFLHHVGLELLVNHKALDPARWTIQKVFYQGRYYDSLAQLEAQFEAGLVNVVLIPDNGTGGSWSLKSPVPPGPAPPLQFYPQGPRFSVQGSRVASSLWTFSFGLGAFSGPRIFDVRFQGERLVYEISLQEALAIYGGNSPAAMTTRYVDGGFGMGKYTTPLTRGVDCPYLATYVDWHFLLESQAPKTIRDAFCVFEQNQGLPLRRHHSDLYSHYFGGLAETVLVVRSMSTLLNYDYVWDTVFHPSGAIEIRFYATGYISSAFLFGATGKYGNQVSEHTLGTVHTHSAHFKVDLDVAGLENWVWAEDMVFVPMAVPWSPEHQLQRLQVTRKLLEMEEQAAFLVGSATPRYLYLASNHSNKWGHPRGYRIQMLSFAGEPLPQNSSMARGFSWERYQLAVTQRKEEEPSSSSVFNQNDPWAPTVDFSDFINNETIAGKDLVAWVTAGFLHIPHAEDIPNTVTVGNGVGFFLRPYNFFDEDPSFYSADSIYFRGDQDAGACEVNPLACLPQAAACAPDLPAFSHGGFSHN
The assay can be described thus: SSAO enzyme inhibition assay (benzylamine substrate; HRP-coupled hydrogen peroxide detection or 14C-benzaldehyde detection). Type of assay: biochemical. The settings on record: purified recombinantly expressed human SSAO, benzylamine as substrate, r.t.; read-out: SSAO inhibitory activity IC50. On the procedure: All primary assays were performed at r.t. with purified recombinantly expressed human SSAO. Enzyme was prepared essentially as described in Öhman et al. (Protein Expression and Purification 46 (2006) 321-331). In addition, secondary- and selectivity assays were performed using SSAO prepared from various tissues or purified rat recombinant SSAO. The enzyme activity was assayed with benzylamine as substrate by measuring either benzaldehyde production, using ^14C-labeled substrate, or by utilizing the production of hydrogen peroxide in a horseradish peroxidise (HRP) coupled reaction. Briefly, test compounds were dissolved in dimethyl sulfoxide (DMSO) to a concentration of 10 mM. Dose-response measurements were assayed by either creating 1:10 serial dilutions in DMSO to produce a 7 point curve or by making 1:3 serial dilutions in DMSO to produce 11 point curves. The top concentrations were adjusted depending on the potency of the compounds and subsequent dilution in reaction buffer yielded a final DMSO concentration ≦2%.
In a horseradish peroxidise (HRP) coupled reaction, hydrogen peroxide oxidation of 10-acetyl-3,7-dihydroxyphenoxazine produced resorufin, which is a highly fluorescent compound (Zhout and Panchuk-Voloshina. Analytical Biochemistry 253 (1997) 169-174; Amplex® Red Hydrogen Peroxide/peroxidise Assay kit, Invitrogen A22188). Enzyme and compounds in 50 mM sodium phosphate, pH 7.4 were set to pre-incubate in flat-bottomed microtiter plates for approximately 15 minutes before initiating the reaction by addition of a mixture of HRP, benzylamine and Amplex reagent. Benzylamine concentration was fixed at a concentration corresponding to the Michaelis constant, determined using standard procedures. Fluorescence intensity was then measured at several time points during 1-2 hours, exciting at 544 nm n and reading the emission at 590 nm. For the human SSAO assay final concentrations of the reagents in the assay wells were: SSAO enzyme 1 μg/ml, benzylamine 100 μM, Amplex reagent 20 μM, HRP 0.1 U/mL and varying concentrations of test compound. The inhibition was measured as % decrease of the signal compared to a control without inhibitor (only diluted DMSO). The background signal from a sample containing no SSAO enzyme was subtracted from all data points. Data was fitted to a four parameter logistic model and IC50 values were calculated using the GraphPad Prism 4 or XLfit 4 programs.
SSAO activity was assayed using 14C-labeled benzylamine and analysed by measuring radioactive benzaldehyde. In a white 96-well optiplate (Packard), 20 μL of diluted test compound was pre-incubated at r.t. with 20 μL SSAO enzyme for approximately 15 minutes with continuous agitation. All dilutions were made with PBS. The reaction was initiated by adding 20 μL of the benzylamine substrate solution containing [7-14C] Benzylamine hydrochloride (CFA589, GE Healthcare). The plate was incubated for 1 hour as above after which the reaction was stopped by acidification (10 μL 1 M HCl). Then 90 μL Micro Scint-E solution (Perkin-Elmer) was added to each well and the plate was continuously mixed for 15 minutes. Phase separation occurred instantly and activity was read in a Topcount scintillation counter (Perkin-Elmer). In the final reaction well, human recombinant SSAO concentration was 10 μg/ml. In order to optimize sensitivity, the substrate concentration was decreased as compared to the HRP coupled assay in order to get a higher fraction of radioactive product. In the human SSAO assay, benzylamine concentration was 40 μM (0.2 μCi/mL). Data was analysed as above.

The values below come from patent publication US9227967B2, “Inhibitor compounds of semicarbazide-sensitive amine oxidases” (Proximagen Limited, priority 2010, dated 2016).

As a reminder, the IC50 is the point on the concentration scale where inhibition reaches its midpoint.

Where a name gives a salt, the structure may show the parent alone.

`NC1CCC(c2cn(-c3ccc(Cl)cc3)c3cnccc23)CC1` (mixture of isomers) [Compound 12, 4-[1-(4-Chlorophenyl)-1H-pyrrolo[2,3-c]pyridin-3-yl]cyclohexan-1-amine hydrochloride]: the 50% inhibitory concentration (IC50) was under 100 nM. The figure for `Cc1cc(Cl)ccc1-n1cc(C2CCC(N)CC2)c2ccncc21` (mixture of isomers) [Compound 13, 4-[1-(4-Chloro-2-methylphenyl)-1H-pyrrolo[2,3-c]pyridin-3-yl]cyclohexan-1-amine hydrochloride] is 100 to 500 nM; for `Clc1ccc(-c2cn(CC3CCOC3)c3ccncc23)cc1` (stereo not drawn) [Compound 1, 3-(4-Chlorophenyl)-1-(oxolan-3-ylmethyl)-1H-pyrrolo[3,2-c]pyridine] it is 500 to 2500 nM. The figure for `CC(C)(C)OC(=O)N1CCC(n2cc(-c3ccc(Cl)cc3)c3cnccc32)CC1` [Compound 2, tert-Butyl 4-[3-(4-chlorophenyl)-1H-pyrrolo[3,2-c]pyridin-1-yl]piperidine-1-carboxylate] is 500 to 2500 nM; for `Clc1ccc(-c2cn(C3CCOC3)c3ccncc23)cc1` (stereo not drawn) [Compound 3, 3-(4-Chlorophenyl)-1-(oxolan-3-yl)-1H-pyrrolo[3,2-c]pyridine] it is 100 to 500 nM; for `Clc1ccc(-c2cn(C3CCOCC3)c3ccncc23)cc1` [Compound 4, 3-(4-Chlorophenyl)-1-(oxan-4-yl)-1H-pyrrolo[3,2-c]pyridine] it is 100 to 500 nM. The value for `Clc1ccc(-c2cn(C3CCNCC3)c3ccncc23)cc1` [Compound 5, Bis(2,2,2-trifluoroacetic acid); 4-[3-(4-chlorophenyl)-1H-pyrrolo[3,2-c]pyridin-1-yl]piperidine] was 100 to 500 nM; that for `Clc1ccc(-c2cn(C3CCNCC3)c3ccncc23)cc1Cl` [Compound 6, 4-[3-(3,4-Dichlorophenyl)-1H-pyrrolo[3,2-c]pyridin-1-yl]piperidine hydrochloride] was 500 to 2500 nM. Take `O=C(CO)N1CCC(n2cc(-c3ccc(Cl)c(Cl)c3)c3cnccc32)CC1` [Compound 7, 1-{4-[3-(3,4-Dichlorophenyl)-1H-pyrrolo[3,2-c]pyridin-1-yl]piperidin-1-yl}-2-hydroxyethan-1-one]: the half-maximal inhibitory concentration (IC50) fell in the range of 500 to 2500 nM.

On to `Clc1ccc(-n2cc(C3=CCNCC3)c3ccncc32)cc1` [Compound 8, 4-[1-(4-Chlorophenyl)-1H-pyrrolo[2,3-c]pyridin-3-yl]-hydrochloride], for which the IC50 lay within 100 to 500 nM. The figure for `CC(C)(C)OC(=O)N1CCC(c2cn(-c3ccc(Cl)cc3)c3cnccc23)CC1` [Compound 9, tert-Butyl 4-[1-(4-chlorophenyl)-1H-pyrrolo[2,3-c]pyridin-3-yl]piperidine-1-carboxylate] is 500 to 2500 nM; for `Clc1ccc(-n2cc(C3CCNCC3)c3ccncc32)cc1` [Compound 10, 1-(4-Chlorophenyl)-3-piperidin-4-yl-1H-pyrrolo[2,3-c]pyridine trifluoroacetate] it is 100 to 500 nM; for `CC(C)(C)OC(=O)NC1CCC(c2cn(-c3ccc(Cl)cc3)c3cnccc23)CC1` (stereo not drawn) [Compound 11, tert-Butyl N-{4-[1-(4-chlorophenyl)-1H-pyrrolo[2,3-c]pyridin-3-yl]cyclohexyl}-carbamate] it is 100 to 500 nM. As to `CN(C)CC(=O)N1CCC(c2cn(-c3ccc(Cl)cc3)c3cnccc23)CC1` [Compound 14, 1-{4-[1-(4-Chlorophenyl)-1H-pyrrolo[2,3-c]pyridin-3-yl]piperidin-1-yl}-2-(dimethyl-amino)ethan-1-one], the IC50 is 100 to 500 nM. The value for `O=C(CO)N1CCC(c2cn(-c3ccc(Cl)cc3)c3cnccc23)CC1` [Compound 15, 1-{4-[1-(4-Chlorophenyl)-1H-pyrrolo[2,3-c]pyridine-3-yl]piperidin-1-yl}-2-hydroxyethan-1-one] was under 100 nM; that for `NCC(=O)N1CCC(c2cn(-c3ccc(Cl)cc3)c3cnccc23)CC1` [Compound 16, 2-Amino-{4-[1-(4-chlorophenyl)-1H-pyrrolo[2,3-c]pyridin-3-yl]piperidin-1-yl}-ethan-1-one hydrochloride] was under 100 nM. The value for `NCCC(=O)N1CCC(c2cn(-c3ccc(Cl)cc3)c3cnccc23)CC1` [Compound 17, 3-Amino-1-{4-[1-(4-chlorophenyl)-1H-pyrrolo[2,3-c]pyridin-3-yl]piperidin-1-yl}propan-1-one hydrochloride] was under 100 nM. The value for `OCCN1CCC(c2cn(-c3ccc(Cl)cc3)c3cnccc23)CC1` [Compound 18, 2-{4-[1-(4-Chlorophenyl)-1H-pyrrolo[2,3-c]pyridin-3-yl]piperidin-1-yl}ethan-1-ol] was 100 to 500 nM; that for `Clc1ccc(-n2cc(C3CCN(Cc4cc[nH]n4)CC3)c3ccncc32)cc1` [Compound 19, 4-[1-(4-Chlorophenyl)-1H-pyrrolo[2,3-c]pyridin-3-yl]-1-(1H-pyrazol-3-ylmethyl)-piperidine] was 100 to 500 nM. For `Cn1cc(CN2CCC(c3cn(-c4ccc(Cl)cc4)c4cnccc34)CC2)cn1` [Compound 20, 4-[1-(4-Chlorophenyl)-1H-pyrrolo[2,3-c]pyridin-3-yl]-1-[(1-methyl-1H-pyrazol-4-yl)-methyl]piperidine], the half-maximal inhibitory concentration (IC50) fell in the range of 100 to 500 nM.

Take `N#CCCN1CCC(c2cn(-c3ccc(Cl)cc3)c3cnccc23)CC1` [Compound 21, 3-{4-[1-(4-Chlorophenyl)-1H-pyrrolo[2,3-c]pyridine-3-yl]piperidin-1-yl}propanenitrile hydrochloride]: the IC50 lay within 100 to 500 nM. The figure for `N#CCCCN1CCC(c2cn(-c3ccc(Cl)cc3)c3cnccc23)CC1` [Compound 22, 4-{4-[1-(4-Chlorophenyl)-1H-pyrrolo[2,3-c]pyridin-3-yl]piperidin-1-yl}butanenitrile hydrochloride] is 100 to 500 nM; for `OCc1cn(-c2ccc(Cl)cc2)c2cnccc12` [Compound 23, [1-(4-Chlorophenyl)-1H-pyrrolo[2,3-c]pyridin-3-yl]methanol] it is 500 to 2500 nM; for `CN1CCN(Cc2cn(-c3ccc(Cl)cc3)c3cnccc23)CC1` [Compound 24, 1-{[1-(4-Chlorophenyl)-1H-pyrrolo[2,3-c]pyridin-3-yl]methyl}-4-methylpiperazine] it is 500 to 2500 nM.

As to `CC(C)(C)OC(=O)N1CCN(Cc2cn(-c3ccc(Cl)cc3)c3cnccc23)CC1` [Compound 25], the IC50 lay in the range of 500 to 2500 nM. For the molecule `Clc1ccc(-n2cc(CN3CCNCC3)c3ccncc32)cc1` [Compound 26, 1-{[1-(4-Chlorophenyl)-1H-pyrrolo[2,3-c]pyridin-3-yl]methyl}piperazine], the half-maximal inhibitory concentration (IC50) was in the range of 500 to 2500 nM. The figure for `OCCC1CCN(Cc2cn(-c3ccc(Cl)cc3)c3cnccc23)CC1` [Compound 27, 2-(1-{[1-(4-Chlorophenyl)-1H-pyrrolo[2,3-c]pyridin-3-yl]methyl}piperidin-4-yl)ethan-1-ol] is 500 to 2500 nM.
